What follows are compounds tested against T1, human HSL (Homo sapiens, UniProt Q05469) (assay: Human Hormone-Sensitive Lipase (HSL) enzyme inhibition assay (colorimetric, DMPT substrate)). Settings: human full length HSL-His6, 2,3-dimercapto-1-propanol tributyrate substrate, 37° C. 20 minutes, absorbance at 405 nm; read-out: HSL hum IC50.
T1 construct: generate a full length human HSL ORF with a 3′-His6 tag; made in house; host or cells: High 5 insect cells (baculovirus, pFast-BAC)
T1 sequence (Q05469 1-1076): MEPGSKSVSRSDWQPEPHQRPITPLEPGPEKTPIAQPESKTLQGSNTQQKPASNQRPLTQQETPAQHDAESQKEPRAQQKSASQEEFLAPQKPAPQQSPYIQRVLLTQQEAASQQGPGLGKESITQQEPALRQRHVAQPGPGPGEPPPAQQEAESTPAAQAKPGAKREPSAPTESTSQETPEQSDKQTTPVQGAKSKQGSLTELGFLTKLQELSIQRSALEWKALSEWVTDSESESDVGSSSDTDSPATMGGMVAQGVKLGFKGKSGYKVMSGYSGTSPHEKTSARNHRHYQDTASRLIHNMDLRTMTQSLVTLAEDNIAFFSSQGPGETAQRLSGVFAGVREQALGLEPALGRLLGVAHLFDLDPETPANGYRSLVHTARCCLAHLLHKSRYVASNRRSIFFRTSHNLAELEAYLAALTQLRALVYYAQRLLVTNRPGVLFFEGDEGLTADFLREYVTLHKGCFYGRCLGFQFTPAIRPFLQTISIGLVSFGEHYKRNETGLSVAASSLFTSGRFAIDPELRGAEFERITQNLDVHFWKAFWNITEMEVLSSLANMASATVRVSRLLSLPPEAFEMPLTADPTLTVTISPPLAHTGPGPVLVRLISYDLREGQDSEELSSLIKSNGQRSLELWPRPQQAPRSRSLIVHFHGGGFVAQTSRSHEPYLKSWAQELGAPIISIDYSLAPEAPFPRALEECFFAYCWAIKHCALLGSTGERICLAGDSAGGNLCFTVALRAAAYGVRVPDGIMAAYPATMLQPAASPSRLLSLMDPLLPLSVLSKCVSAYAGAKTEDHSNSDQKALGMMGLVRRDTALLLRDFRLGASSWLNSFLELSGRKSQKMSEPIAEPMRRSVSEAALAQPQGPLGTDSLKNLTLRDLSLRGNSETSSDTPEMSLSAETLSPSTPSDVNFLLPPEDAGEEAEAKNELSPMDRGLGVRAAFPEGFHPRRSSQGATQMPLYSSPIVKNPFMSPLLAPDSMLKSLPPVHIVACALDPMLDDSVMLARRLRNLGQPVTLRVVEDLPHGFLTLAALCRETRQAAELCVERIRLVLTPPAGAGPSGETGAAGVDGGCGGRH
Assay type: biochemical
How it was run: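 Full-length human HSL with C-terminal His6, expressed in baculovirus-infected High 5 cells and Ni-NTA purified, was added (15 ug/ml stock) to 1.5 mM DMPT in 100 mM MOPS pH 7.2, 0.2 mg/ml fatty acid-free BSA containing compound. After 20 min at 37 °C, DTNB with SDS/Triton X-100 was added; A405 read after 15 min at RT.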

| Compound | IC50 |
| --- | --- |
| CCc1ccc(N2CC[C@]3(CC[C@@](O)(COCCOC)CC3)C2=O)cc1 [Example 229, (5α,8α)-2-(4-Ethyl-phenyl)-8-hydroxy-8-(2-methoxy-ethoxymethyl)-2-aza-spiro[4.5]decan-1-one] | 130 nM |
| CCc1ccc(N2CC[C@]3(CC[C@](O)(COCC(F)(F)F)CC3)C2=O)cc1 [Example 230, (5α,8β)-2-(4-Ethyl-phenyl)-8-hydroxy-8-(2,2,2-trifluoro-ethoxymethyl)-2-aza-spiro[4.5]decan-1-one] | 400 nM |
| O=C1N(c2ccc(OCC(F)(F)F)cc2)CC[C@]12CC[C@](O)(COCC(F)(F)F)CC2 [Example 232, (5α,8β)-8-Hydroxy-8-(2,2,2-trifluoro-ethoxymethyl)-2-[4-(2,2,2-trifluoro-ethoxy)-phenyl]-2-aza-spiro[4.5]decan-1-one] | 290 nM |
| CCOC[C@]1(O)CC[C@]2(CCN(c3ccc(OCC(F)(F)F)cc3)C2=O)CC1 [Example 234, (5α,8α)-8-Ethoxymethyl-8-hydroxy-2-[4-(2,2,2-trifluoro-ethoxy)phenyl]-2-aza-spiro[4.5]decan-1-one] | 40 nM |
| CCCOC[C@]1(O)CC[C@@]2(CCN(c3ccc(OCC(F)(F)F)cc3)C2=O)CC1 [Example 235, (5α,8β)-8-Hydroxy-8-propoxymethyl-2-[4-(2,2,2-trifluoro-ethoxy)-phenyl]-2-aza-spiro[4.5]decan-1-one] | 630 nM |
| CCCCOC[C@]1(O)CC[C@@]2(CCN(c3ccc(OCC(F)(F)F)cc3)C2=O)CC1 [Example 237, (5α,8β)-8-Butoxymethyl-8-hydroxy-2-[4-(2,2,2-trifluoro-ethoxy)-phenyl]-2-aza-spiro[4.5]decan-1-one] | 270 nM |
| CCCCOC[C@]1(O)CC[C@]2(CCN(c3ccc(OCC(F)(F)F)cc3)C2=O)CC1 [Example 238, (5α,8α)-8-Butoxymethyl-8-hydroxy-2-[4-(2,2,2-trifluoro-ethoxy)-phenyl]-2-aza-spiro[4.5]decan-1-one] | 20 nM |
| O=C1N(c2ccc(OCC(F)(F)F)cc2)CC[C@]12CC[C@](O)(COc1ccccc1)CC2 [Example 239, (5α,8β)-8-Hydroxy-8-phenoxymethyl-2-[4-(2,2,2-trifluoro-ethoxy)-phenyl]-2-aza-spiro[4.5]decan-1-one] | 140 nM |
| O=C1N(c2ccc(OCC(F)(F)F)cc2)CC[C@]12CC[C@](O)(COCc1ccccc1)CC2 [Example 241, (5α,8β)-8-Benzyloxymethyl-8-hydroxy-2-[4-(2,2,2-trifluoro-ethoxy)-phenyl]-2-aza-spiro[4.5]decan-1-one] | 90 nM |
| O=C1N(c2ccc(OCC(F)(F)F)cc2)CC[C@]12CC[C@](O)(COCC(F)F)CC2 [Example 243, (5α,8β)-8-(2,2-Difluoro-ethoxymethyl)-8-hydroxy-2-[4-(2,2,2-trifluoro-ethoxy)-phenyl]-2-aza-spiro[4.5]decan-1-one] | 300 nM |
| O=C1N(c2ccc(OCC(F)(F)F)cc2)CC[C@]12CC[C@@](O)(COCC(F)F)CC2 [Example 244, (5α,8α)-8-(2,2-Difluoro-ethoxymethyl)-8-hydroxy-2-[4-(2,2,2-trifluoro-ethoxy)-phenyl]-2-aza-spiro[4.5]decan-1-one] | 30 nM |
| CC(C)COC[C@]1(O)CC[C@@]2(CCN(c3ccc(OCC(F)(F)F)cc3)C2=O)CC1 [Example 245, (5α,8β)-8-Hydroxy-8-isobutoxymethyl-2-[4-(2,2,2-trifluoro-ethoxy)-phenyl]-2-aza-spiro[4.5]decan-1-one] | 280 nM |
| CC(C)COC[C@]1(O)CC[C@]2(CCN(c3ccc(OCC(F)(F)F)cc3)C2=O)CC1 [Example 246, (5α,8α)-8-Hydroxy-8-isobutoxymethyl-2-[4-(2,2,2-trifluoro-ethoxy)-phenyl]-2-aza-spiro[4.5]decan-1-one] | 640 nM |
| CCOC[C@]1(O)CC[C@]2(CCN(c3ccc(OCC(F)(F)F)nc3)C2=O)CC1 [Example 247, (5α,8α)-8-Ethoxymethyl-8-hydroxy-2-[6-(2,2,2-trifluoro-ethoxy)-pyridin-3-yl]-2-aza-spiro[4.5]decan-1-one] | 70 nM |
| CCOC[C@]1(O)CC[C@@]2(CCN(c3ccc(O[C@@H](C)C(F)(F)F)nc3)C2=O)CC1 [Example 248, (5α,8β)-8-Ethoxymethyl-8-hydroxy-2-[6-((S)-2,2,2-trifluoro-1-methyl-ethoxy)-pyridin-3-yl]-2-aza-spiro[4.5]decan-1-one] | 340 nM |
| CCOC[C@]1(O)CC[C@@]2(CCN(c3ccc(O[C@@H](C)C(F)(F)F)cc3)C2=O)CC1 [Example 250, (5α,8β)-8-Ethoxymethyl-8-hydroxy-2-[4-((S)-2,2,2-trifluoro-1-methyl-ethoxy)-phenyl]-2-aza-spiro[4.5]decan-1-one] | 600 nM |
| CCOC[C@]1(O)CC[C@@]2(CCN(c3ccc(O[C@H](C)C(F)(F)F)cc3)C2=O)CC1 [Example 252, (5α,8β)-8-Ethoxymethyl-8-hydroxy-2-[4-((R)-2,2,2-trifluoro-1-methyl-ethoxy)-phenyl]-2-aza-spiro[4.5]decan-1-one] | 230 nM |
| O=C1N(c2ccc(OCC(F)(F)F)cc2)CC[C@]12CC[C@](O)(COCC1CCC1)CC2 [Example 254, (5α,8β)-8-[(Cyclobutylmethoxy)methyl]-8-hydroxy-2-[4-(2,2,2-trifluoro-ethoxy)-phenyl]-2-aza-spiro[4.5]decan-1-one] | 410 nM |

Other lines, results leading:

| IC50 | Compound |
| --- | --- |
| 20 nM | CCc1ccc(N2CC[C@]3(CC[C@@](O)(COCC(F)(F)F)CC3)C2=O)cc1 [Example 231, (5α,8α)-2-(4-Ethyl-phenyl)-8-hydroxy-8-(2,2,2-trifluoro-ethoxymethyl)-2-aza-spiro[4.5]decan-1-one] |
| 20 nM | O=C1N(c2ccc(OCC(F)(F)F)cc2)CC[C@]12CC[C@@](O)(COCC(F)(F)F)CC2 [Example 233, (5α,8α)-8-Hydroxy-8-(2,2,2-trifluoro-ethoxymethyl)-2-[4-(2,2,2-trifluoro-ethoxy)-phenyl]-2-aza-spiro[4.5]decan-1-one] |
| 20 nM | CCCOC[C@]1(O)CC[C@]2(CCN(c3ccc(OCC(F)(F)F)cc3)C2=O)CC1 [Example 236, (5α,8α)-8-Hydroxy-8-propoxymethyl-2-[4-(2,2,2-trifluoro-ethoxy)-phenyl]-2-aza-spiro[4.5]decan-1-one] |
| 20 nM | O=C1N(c2ccc(OCC(F)(F)F)cc2)CC[C@]12CC[C@@](O)(COc1ccccc1)CC2 [Example 240, (5α,8α)-8-Hydroxy-8-phenoxymethyl-2-[4-(2,2,2-trifluoro-ethoxy)-phenyl]-2-aza-spiro[4.5]decan-1-one] |
| 10 nM | O=C1N(c2ccc(OCC(F)(F)F)cc2)CC[C@]12CC[C@@](O)(COCc1ccccc1)CC2 [Example 242, (5α,8α)-8-Benzyloxymethyl-8-hydroxy-2-[4-(2,2,2-trifluoro-ethoxy)-phenyl]-2-aza-spiro[4.5]decan-1-one] |
| 20 nM | CCOC[C@]1(O)CC[C@]2(CCN(c3ccc(O[C@@H](C)C(F)(F)F)nc3)C2=O)CC1 [Example 249, (5α,8α)-8-Ethoxymethyl-8-hydroxy-2-[6-((S)-2,2,2-trifluoro-1-methyl-ethoxy)-pyridin-3-yl]-2-aza-spiro[4.5]decan-1-one] |
| 10 nM | CCOC[C@]1(O)CC[C@]2(CCN(c3ccc(O[C@@H](C)C(F)(F)F)cc3)C2=O)CC1 [Example 251, (5α,8α)-8-Ethoxymethyl-8-hydroxy-2-[4-((S)-2,2,2-trifluoro-1-methyl-ethoxy)-phenyl]-2-aza-spiro[4.5]decan-1-one] |
| 20 nM | CCOC[C@]1(O)CC[C@]2(CCN(c3ccc(O[C@H](C)C(F)(F)F)cc3)C2=O)CC1 [Example 253, (5α,8α)-8-Ethoxymethyl-8-hydroxy-2-[4-((R)-2,2,2-trifluoro-1-methyl-ethoxy)-phenyl]-2-aza-spiro[4.5]decan-1-one] |
| 10 nM | O=C1N(c2ccc(OCC(F)(F)F)cc2)CC[C@]12CC[C@@](O)(COCC1CCC1)CC2 [Example 255, (5α,8α)-8-[(Cyclobutylmethoxy)methyl]-8-hydroxy-2-[4-(2,2,2-trifluoro-ethoxy)-phenyl]-2-aza-spiro[4.5]decan-1-one] |

Reference: patent publication US8440710B2, “HSL inhibitors useful in the treatment of diabetes” (Hoffmann-La Roche Inc., priority 2009, dated 2013)
